The source made the active and inactive calls.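 Rule for the calls: active = fitted curve reaching 40% activation at or below the top valid dose tested; inconclusive = flat curve at 30 to 70% activation, or poor fit; inactive = the rest.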

In the assay the test system is SK-MEL-5 TRPM1 promoter luciferase reporter, 24 h. As to the kind of experiment: MITF activators via TRPM1 promoter reporter, dose response, SK-MEL-5 cells, luciferase, cherry-pick samples (AID 540258).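 Note: potency for activators that raise TRPM1 promoter luciferase signal.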
`N#Cc1cc(C#N)c(N2CCN(c3ccccn3)CC2)nc1N`: the AC40 was 4.47 µM.

Turning to `COC(=O)c1ccc(N=NN2CCCCC2)cc1`, the AC40 was 1.34 µM.

In the case of `COc1ccc(OC)c(/C=N/N(C)c2ccccc2)c1`, the AC40 is 1.44 µM.

Turning to `CCc1cccc2c(C(=O)CN3C(=O)NC4(CCCCCC4)C3=O)c[nH]c12`, the AC40 is > 35 µM (inactive).

Regarding `CCc1ccc(C(=O)N/N=C(\C)c2cccnc2)s1`, the AC40 was 8.9 µM.

Regarding `c1ccc(COc2ccc(-c3csnn3)cc2)cc1`, the AC40 was 0.889 µM.

Take `Cc1cccc(Nc2nc3c(s2)CCCC3)c1`: the AC40 is 0.993 µM.

`CCC(=O)NCCc1nc2cc(NC(=O)c3ccc(Cl)cc3)ccc2n1C`: the AC40 was 0.755 µM.

`CCCc1cc2c(=O)c(-c3ccccn3)coc2cc1OC`: the AC40 is 1.81 µM.

As for `C(=C\c1nnc(-c2cccs2)o1)/c1ccccc1`, the AC40 was 0.734 µM.

Regarding `Cc1cccc(OCc2nc(-c3nonc3N)no2)c1C`, the AC40 was 3.81 µM.

`Cc1ccc(OCc2cc(C(=O)N3CC4C[C@@H]5CC3C[C@H](C4)C5)no2)cc1C`: the AC40 is 2.61 µM.

For the compound `c1ccc(CCn2nnc3ccccc32)cc1`, the AC40 was 0.867 µM.

On to `COc1ccc(/C(C)=N/Nc2nncc3ccccc23)cc1`, for which the AC40 is 0.58 µM.

On to `CNC(=O)C(=O)Nc1nc(C23CC4CC(CC(C4)C2)C3)cs1`, for which the AC40 is 16.6 µM.

Take `Clc1ccc(SCc2cn3ccccc3n2)cc1`: the AC40 is 2.69 µM.

Turning to `Cc1nc2cc3nc(C)sc3cc2s1`, the AC40 is 7.83 µM.

Regarding `c1ccc2nc(-c3nccs3)ccc2c1`, the AC40 is 8.94 µM.

Regarding `CCCc1cc(C(=O)Nc2cc(Cl)ccc2O)no1`, the AC40 is 2.99 µM.

On to `CCN(CC)C(=O)CCc1nnc(Cc2cccc(C(F)(F)F)c2)o1`, for which the AC40 was 1.95 µM.

As to `CCC(=O)N1CCc2nc(-c3ccccc3)sc2C1`, the AC40 was 6.73 µM.

`Clc1ccc(-c2ccc(SCc3ccccn3)nn2)cc1`: the AC40 is 2.39 µM.

Turning to `COC(=O)c1ccc(CSC2=NCCS2)cc1`, the AC40 was 3.38 µM.

Regarding `O=C(Nc1ccccn1)c1ccccc1`, the AC40 was 14.8 µM.

`COc1ccc(C(=O)NCCn2ccc3ccccc32)cc1`: the AC40 is 1.66 µM.

In the case of `Cc1ccccc1Nc1nc(N)nc(COC(=O)c2ccccc2)n1`, the AC40 was 7.87 µM.

Regarding `N#Cc1c(-c2ccc(Cl)cc2)ccn2nc(C3CCCCC3)nc12`, the AC40 was 2.4 µM.

On to `[O-]/[N+](=C\C=C\c1ccccc1)c1ccccc1`, for which the AC40 is 1.68 µM.

Regarding `N#C/C(=N\Nc1ccccc1F)C(=N)N1CCCCC1`, the AC40 was 2.13 µM.

On to `c1ccc(-c2nc3ccccc3[nH]2)cc1`, for which the AC40 is 1.81 µM.

With `Cc1nc2c3cnn(-c4ccc(C)c(C)c4)c3ncn2n1`, the AC40 is 0.921 µM.

Consider `CC(=O)N(c1ccccc1)c1nnc(-c2cnc(C)cn2)s1`, for which the AC40 is 1.55 µM.

With `CS(=O)(=O)N1CCc2cc(C(=O)Nc3ccccc3Br)ccc21`, the AC40 is 4.96 µM.

Turning to `COc1ccc(-c2ccc3oc(-c4ccsc4)cc(=O)c3c2)cn1`, the AC40 is 1.79 µM.

For the compound `Nc1nc2ccccc2cc1-c1cccs1`, the AC40 was 6.26 µM.

`Cc1ccsc1C(=O)OCc1nnc(-c2ccccc2)o1`: the AC40 was 7.44 µM.

In the case of `COc1ccccc1OCc1cc(-c2ccccc2)no1`, the AC40 is 2.28 µM.

For `CCCCc1nc2cc(C(=O)N3CCN(c4nc(C)cnc4C)CC3)ccc2o1`, the AC40 is > 35 µM (inactive).

`O=c1c2ccccc2oc2c1ccc1ccccc12`: the AC40 was 10.5 µM.

In the case of `Brc1ccc(/C=N/Nc2ccccc2)cc1`, the AC40 was 15.4 µM.

`COc1ccc(C(=O)/C=C/Nc2cccc(C)n2)cc1OC`: the AC40 was 0.977 µM.

As to `O=C(NC1CCCCCC1)c1c(O)c2ccccc2[nH]c1=O`, the AC40 is 1.1 µM.

Turning to `COc1ccccc1NC(=O)Nc1nc2ccc(S(N)(=O)=O)cc2s1`, the AC40 is 1.57 µM.

Take `Cc1ccc(/C=N/N2C(=O)c3ccccc3NC2c2ccc(C)cc2)cc1` (stereo not given): the AC40 was 20.5 µM.

On to `CC1CCN(c2ccc3c(c2)S(=O)(=O)c2ccccc2C3=O)CC1`, for which the AC40 is 0.442 µM.
